Data published in patent publication US20050119352A1, “Method of treating cancers” (priority 2002, published 2005).
Like-named read-outs stand apart in the source and are kept apart here.

How the values were obtained:
[1] = test system: ARH-77 cells, a human multiple myeloma cell line; experiment: MTT cell survival assay in ARH-77 multiple myeloma cells
Description: β-lapachone was dissolved at 20 mM concentration in dimethyl sulfoxide (DMSO), aliquoted, and stored at −20° C. for cell culture use. Imatinib was dissolved at 100 mM concentration in dimethyl sulfoxide (DMSO).
Each well was treated with β-lapachone and/or imatinib. Each condition was run in triplicate. […] The plates were read using a plate reader at 570 nm.

[2] = test system: K562 cells (human chronic myelogenous leukemia cell line), imatinib-sensitive; experiment: MTT cell survival assay in K562 CML cells, imatinib-sensitive line
Description: (§1) K562 cells (a human chronic myelogenous leukemia (CML) cell line), were suspended in RPMI 1640 Medium (Life Technologies Inc.), supplemented with 10% FCS, 2 mM L-glutamine in 96-well plates (2×10^4 cells per well). Both an imatinib-sensitive and an imatinib-resistant cell line were used. Each well was treated with β-lapachone and/or imatinib. Each condition was run in triplicate. After incubation for 48 hours, cell survival was assayed using MTT to determine cell survival. The plates were read using a plate reader at 570 nm.

[3] = test system: K562 cells (human chronic myelogenous leukemia cell line), imatinib-resistant; experiment: MTT cell survival assay in K562 CML cells, imatinib-resistant line; format: cell-based; conditions: 48 hours; for % Viability: Imatinib 0 μM
Description: as §1

[4] = cited from earlier work
[5] = test system: transplanted human mammary carcinoma; conditions: cited from earlier work

`CC1(C)CCC2=C(O1)c1ccccc1C(=O)C2=O` [β-lapachone, 3,4-dihydro-2,2-dimethyl-2H-naphtho[1,2-b]pyran-5,6-dione] showed a viability at 1 µM ([1]; Homo sapiens, ARH-77, 24 h, STI571 0 μM, Co-501 1 μM, 24 hours) of 91%, a viability at 2 µM ([1]; Homo sapiens, ARH-77, 24 h, STI571 0 μM, Co-501 2 μM, 24 hours) of 34% and a viability at 4 µM ([1]; Homo sapiens, ARH-77, 24 h, STI571 0 μM, Co-501 4 μM, 24 hours) of 40%. The “% Viability” value ([1]; STI571 0 μM, Co-501 2 μM, 24 hours) was 34.3%, the “% Viability” value ([1]; human, 24 h, 1 μM) was 91.4% and the “% Viability” value ([2]; Imatinib 0 μM, B-lapachone 1 μM, 48 hours) was 36.2%. The “% Viability” value ([2]; Imatinib 0 μM, B-lapachone 2 μM, 48 hours) was 11.9%, the “% Viability” value ([2]; Imatinib 0 μM, B-lapachone 4 μM, 48 hours) was 1.0% and the “% Viability” value ([2]; human, 48 h, 0.5 μM) was 58.3%. For the same compound, the “% Viability” value ([3]; B-lapachon 0.5 μM) was 80.5%, the “% Viability” value ([3]; B-lapachon 1 μM) was 79% and the “% Viability” value ([3]; B-lapachon 2 μM) was 45%. The “% Viability” value ([3]; B-lapachon 4 μM) was 0.56% and the water solubility [4] was “water insolubility”.

In the case of `O=CN/C=C/c1cc(O)ccc1O` [erbstatin], the tumor growth ([5]; another carcinoma which does not express the EGF receptor) is listed as “without effect” and the tumor growth ([5]; carcinoma which expresses epidermal growth factor receptor tyrosine kinase, athymic nude mice) is listed as “selectively attenuates the growth”.

In the case of `Cc1ccc(NC(=O)c2ccc(CN3CCN(C)CC3)cc2)cc1Nc1nccc(-c2cccnc2)n1` [imatinib, Imatinib], the “% Viability” value ([1]; STI571 1 μM, Co-501 0 μM, 24 hours) is reported as 66.3%, the “% Viability” value ([1]; STI571 2 μM, Co-501 0 μM, 24 hours) is reported as 80.0% and the “% Viability” value ([1]; STI571 5 μM, Co-501 0 μM, 24 hours) is reported as 85.7%. For the same compound, the “% Viability” value ([1]; STI571 10 μM, Co-501 0 μM, 24 hours) was 91%, the “% Viability” value ([1]; STI571 20 μM, Co-501 0 μM, 24 hours) was 47% and the “% Viability” value ([1]; STI571 20 μM, Co-501 0 μM, 24 hours, listed as STI571) was 46.7%. For the same compound, the “% Viability” value ([1]; STI571 50 μM, Co-501 0 μM, 24 hours) was 10.0%, the viability at 0.5 µM ([2]; Homo sapiens, K562, 48 h) was 57.2% and the viability at 1 µM ([2]; Homo sapiens, K562, 48 h) was 36.6%. The viability at 5 µM ([2]; Homo sapiens, K562, 48 h) was 20.9%, the viability at 10 µM ([2]; Homo sapiens, K562, 48 h) was 13.9% and the viability at 20 µM ([2]; Homo sapiens, K562, 48 h) was 0.9%. For the same compound, the viability at 1 µM ([3]; Homo sapiens, K562, Imatinib 1 μM, B-lapachon 0 μM) was 94.7%, the viability at 5 µM ([3]; Homo sapiens, K562, Imatinib 5 μM, B-lapachon 0 μM) was 57.3% and the viability at 10 µM ([3]; Homo sapiens, K562, Imatinib 10 μM, B-lapachon 0 μM) was 22.5%. The viability at 20 µM ([3]; Homo sapiens, K562, Imatinib 20 μM, B-lapachon 0 μM) was 11.5%, the viability at 40 µM ([3]; Homo sapiens, K562, Imatinib 40 μM, B-lapachon 0 μM) was 4.9% and the “sensitivity to imatinib alone, compared with imatinib-sensitive line” value ([3]; imatinib alone) was “less sensitivity”.
